Results published in ChEMBL document CHEMBL1201862, “PubChem BioAssay data set” (2004).
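Growth conditions: 96-well plates. Treatment: test compound, 48 hours, 5 concentrations. Analysis: linear interpolation between bracketing concentrations; unreached endpoints set to highest concentration. GI50: concentration for 50% inhibition of growth.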 Calls of active or inactive are those of the source. Rule as the data show it: active = GI50 up to about 1.1 µM and inactive = higher.

How the values were obtained:
Experiment in all cases: NCI anticancer screen, dose series, 48 h
RPMI-8226 = tested on: RPMI-8226
RXF 393 = tested on: RXF 393
M19-MEL = tested on: M19-MEL
UACC-62 = tested on: UACC-62
DLD-1 = tested on: DLD-1
OVCAR-8 = tested on: OVCAR-8
KM12 = tested on: KM12
TK-10 = tested on: TK-10
HCT-116 = tested on: HCT-116
K562 = tested on: K562
IGROV-1 = tested on: IGROV-1
KM-20L2 = tested on: KM-20L2
SW-620 = tested on: SW-620
SK-OV-3 = tested on: SK-OV-3
A549 = tested on: A549
NCI-H522 = tested on: NCI-H522
LOX IMVI = tested on: LOX IMVI
U-251 = tested on: U-251
A498 = tested on: A498
M14 = tested on: M14
HOP-92 = tested on: HOP-92
SNB-78 = tested on: SNB-78
SF-295 = tested on: SF-295
COLO 205 = tested on: COLO 205
SK-MEL-5 = tested on: SK-MEL-5
NCI-H460 = tested on: NCI-H460
CAKI-1 = tested on: CAKI-1
DMS-273 = tested on: DMS-273
SNB-75 = tested on: SNB-75
OVCAR-4 = tested on: OVCAR-4
SR = tested on: SR
HCT-15 = tested on: HCT-15
OVCAR-5 = tested on: OVCAR-5
LXFL 529 = tested on: LXFL 529
HOP-18 = tested on: HOP-18
HT-29 = tested on: HT-29
MOLT-4 = tested on: MOLT-4
SK-MEL-2 = tested on: SK-MEL-2
HCC 2998 = tested on: HCC 2998
DMS-114 = tested on: DMS-114
UO-31 = tested on: UO-31
SNB-19 = tested on: SNB-19
UACC-257 = tested on: UACC-257
SF-268 = tested on: SF-268
Malme-3M = tested on: Malme-3M
ACHN = tested on: ACHN
SF-539 = tested on: SF-539
HL-60 = tested on: HL-60
SN12C = tested on: SN12C
CCRF-CEM = tested on: CCRF-CEM
786-0 = tested on: 786-0
HOP-62 = tested on: HOP-62
NCI-H226 = tested on: NCI-H226
XF498 = tested on: XF498
OVCAR-3 = tested on: OVCAR-3
EKVX = tested on: EKVX
NCI-H23 = tested on: NCI-H23

Nc1ccc2c(c1)CC1c3ccccc3C(C2)c2ccccc21
GI50 (RPMI-8226): 34.6 µM (inactive) | GI50 (RXF 393): > 100 µM (inactive) | GI50 (M19-MEL): > 100 µM (inactive) | GI50 (UACC-62): > 100 µM (inactive) | GI50 (DLD-1): > 100 µM (inactive) | GI50 (OVCAR-8): > 100 µM (inactive) | GI50 (KM12): > 100 µM (inactive) | GI50 (TK-10): > 100 µM (inactive) | GI50 (HCT-116): > 100 µM (inactive) | GI50 (K562): > 100 µM (inactive) | GI50 (IGROV-1): > 100 µM (inactive) | GI50 (KM-20L2): > 100 µM (inactive) | GI50 (SW-620): > 100 µM (inactive) | GI50 (SK-OV-3): > 100 µM (inactive) | GI50 (A549): > 100 µM (inactive) | GI50 (NCI-H522): > 100 µM (inactive) | GI50 (LOX IMVI): > 100 µM (inactive) | GI50 (U-251): > 100 µM (inactive) | GI50 (A498): > 100 µM (inactive) | GI50 (M14): > 100 µM (inactive) | GI50 (HOP-92): > 100 µM (inactive) | GI50 (SNB-78): > 100 µM (inactive) | GI50 (SF-295): > 100 µM (inactive) | GI50 (COLO 205): > 100 µM (inactive) | GI50 (SK-MEL-5): > 100 µM (inactive) | GI50 (NCI-H460): > 100 µM (inactive) | GI50 (CAKI-1): > 100 µM (inactive) | GI50 (DMS-273): > 100 µM (inactive) | GI50 (SNB-75): > 100 µM (inactive) | GI50 (OVCAR-4): > 100 µM (inactive) | GI50 (SR): 9.68 µM (inactive) | GI50 (HCT-15): > 100 µM | GI50 (OVCAR-5): > 100 µM (inactive) | GI50 (LXFL 529): > 100 µM (inactive) | GI50 (HOP-18): > 100 µM (inactive) | GI50 (HT-29): > 100 µM (inactive) | GI50 (MOLT-4): > 100 µM (inactive) | GI50 (SK-MEL-2): > 100 µM (inactive) | GI50 (HCC 2998): > 100 µM (inactive) | GI50 (DMS-114): > 100 µM (inactive) | GI50 (UO-31): > 100 µM (inactive) | GI50 (SNB-19): > 100 µM (inactive) | GI50 (UACC-257): > 100 µM (inactive) | GI50 (SF-268): > 100 µM (inactive) | GI50 (Malme-3M): > 100 µM (inactive) | GI50 (ACHN): > 100 µM (inactive) | GI50 (SF-539): > 100 µM (inactive) | GI50 (HL-60): > 100 µM (inactive) | GI50 (SN12C): > 100 µM (inactive) | GI50 (CCRF-CEM): 47.3 µM (inactive) | GI50 (786-0): > 100 µM (inactive) | GI50 (HOP-62): > 100 µM (inactive)

CCOC(C[C@H](O)[C@H]1COC(=S)S1)OCC
GI50 (RPMI-8226): > 100 µM (inactive) | GI50 (RXF 393): 4.65 µM (inactive) | GI50 (M19-MEL): > 100 µM (inactive) | GI50 (UACC-62): > 100 µM (inactive) | GI50 (OVCAR-8): > 100 µM (inactive) | GI50 (KM12): > 100 µM (inactive) | GI50 (TK-10): > 100 µM (inactive) | GI50 (HCT-116): > 100 µM (inactive) | GI50 (IGROV-1): > 100 µM (inactive) | GI50 (KM-20L2): > 100 µM (inactive) | GI50 (SW-620): > 100 µM (inactive) | GI50 (SK-OV-3): > 10 µM (inactive) | GI50 (A549): > 100 µM (inactive) | GI50 (NCI-H522): > 100 µM (inactive) | GI50 (LOX IMVI): > 100 µM (inactive) | GI50 (U-251): > 100 µM (inactive) | GI50 (M14): > 100 µM (inactive) | GI50 (SF-295): > 100 µM (inactive) | GI50 (COLO 205): > 100 µM (inactive) | GI50 (NCI-H226): > 100 µM (inactive) | GI50 (SK-MEL-5): > 100 µM (inactive) | GI50 (NCI-H460): > 100 µM (inactive) | GI50 (DMS-273): > 100 µM (inactive) | GI50 (XF498): > 100 µM (inactive) | GI50 (SR): > 100 µM (inactive) | GI50 (HCT-15): > 100 µM | GI50 (LXFL 529): > 100 µM (inactive) | GI50 (HT-29): > 100 µM (inactive) | GI50 (OVCAR-3): > 100 µM (inactive) | GI50 (EKVX): > 100 µM (inactive) | GI50 (HCC 2998): > 100 µM (inactive) | GI50 (DMS-114): > 100 µM (inactive) | GI50 (UO-31): > 100 µM (inactive) | GI50 (SNB-19): > 100 µM (inactive) | GI50 (UACC-257): > 100 µM (inactive) | GI50 (SF-268): > 100 µM (inactive) | GI50 (Malme-3M): > 100 µM (inactive) | GI50 (ACHN): > 100 µM (inactive) | GI50 (SF-539): > 100 µM (inactive) | GI50 (HL-60): > 100 µM (inactive) | GI50 (SN12C): > 100 µM (inactive) | GI50 (NCI-H23): > 100 µM (inactive) | GI50 (786-0): > 100 µM (inactive) | GI50 (HOP-62): > 100 µM (inactive)
